This note sets out measurements from ChEMBL document CHEMBL2417394, “Exquisite selectivity for human toll-like receptor 8 in substituted furo[2,3-c]quinolines” (J Med Chem, 2013).

What all share (type): cell-based
For test [1], the target named is T1, Toll-like receptor 7 (Homo sapiens) (UniProt Q9NYK1).
T1 sequence (whole entry): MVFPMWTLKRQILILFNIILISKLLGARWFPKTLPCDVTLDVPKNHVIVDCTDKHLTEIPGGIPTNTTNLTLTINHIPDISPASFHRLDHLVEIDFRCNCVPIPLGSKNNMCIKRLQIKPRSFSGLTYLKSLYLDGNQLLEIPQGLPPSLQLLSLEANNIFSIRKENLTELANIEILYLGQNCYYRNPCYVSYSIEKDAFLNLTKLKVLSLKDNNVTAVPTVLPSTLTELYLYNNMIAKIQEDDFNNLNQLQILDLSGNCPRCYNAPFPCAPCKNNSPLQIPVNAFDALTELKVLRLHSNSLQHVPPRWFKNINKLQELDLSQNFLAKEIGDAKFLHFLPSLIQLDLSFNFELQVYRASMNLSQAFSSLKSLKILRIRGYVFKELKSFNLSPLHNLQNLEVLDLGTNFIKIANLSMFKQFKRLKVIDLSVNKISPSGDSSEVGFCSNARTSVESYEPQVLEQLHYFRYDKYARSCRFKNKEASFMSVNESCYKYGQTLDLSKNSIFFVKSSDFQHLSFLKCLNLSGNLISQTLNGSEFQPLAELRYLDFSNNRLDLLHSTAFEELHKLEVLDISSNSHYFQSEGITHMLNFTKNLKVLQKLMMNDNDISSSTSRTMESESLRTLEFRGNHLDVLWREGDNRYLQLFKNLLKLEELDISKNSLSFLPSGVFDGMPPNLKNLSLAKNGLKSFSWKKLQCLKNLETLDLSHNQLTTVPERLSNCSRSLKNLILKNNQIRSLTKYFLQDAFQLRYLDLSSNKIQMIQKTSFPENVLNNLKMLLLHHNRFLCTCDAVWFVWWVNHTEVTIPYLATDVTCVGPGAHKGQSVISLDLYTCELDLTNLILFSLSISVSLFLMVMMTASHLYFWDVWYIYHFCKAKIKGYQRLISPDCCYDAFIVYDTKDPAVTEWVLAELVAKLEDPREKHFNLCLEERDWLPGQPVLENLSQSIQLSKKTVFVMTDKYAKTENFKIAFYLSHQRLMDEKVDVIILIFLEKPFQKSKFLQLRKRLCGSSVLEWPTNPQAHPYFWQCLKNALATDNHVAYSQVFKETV
Kind of test: Antagonist activity at human TLR7 expressed in HEK293 cells co-transfected with MD2 and sAP assessed as inhibition of NF-kappaB activity by reporter gene assay. For orientation: Reporter assays use an easily measured gene product as a stand-in for the process of interest.

Test [2] deals with T2, Toll-like receptor 9 (Homo sapiens) (UniProt Q9NR96).
T2 sequence (whole entry): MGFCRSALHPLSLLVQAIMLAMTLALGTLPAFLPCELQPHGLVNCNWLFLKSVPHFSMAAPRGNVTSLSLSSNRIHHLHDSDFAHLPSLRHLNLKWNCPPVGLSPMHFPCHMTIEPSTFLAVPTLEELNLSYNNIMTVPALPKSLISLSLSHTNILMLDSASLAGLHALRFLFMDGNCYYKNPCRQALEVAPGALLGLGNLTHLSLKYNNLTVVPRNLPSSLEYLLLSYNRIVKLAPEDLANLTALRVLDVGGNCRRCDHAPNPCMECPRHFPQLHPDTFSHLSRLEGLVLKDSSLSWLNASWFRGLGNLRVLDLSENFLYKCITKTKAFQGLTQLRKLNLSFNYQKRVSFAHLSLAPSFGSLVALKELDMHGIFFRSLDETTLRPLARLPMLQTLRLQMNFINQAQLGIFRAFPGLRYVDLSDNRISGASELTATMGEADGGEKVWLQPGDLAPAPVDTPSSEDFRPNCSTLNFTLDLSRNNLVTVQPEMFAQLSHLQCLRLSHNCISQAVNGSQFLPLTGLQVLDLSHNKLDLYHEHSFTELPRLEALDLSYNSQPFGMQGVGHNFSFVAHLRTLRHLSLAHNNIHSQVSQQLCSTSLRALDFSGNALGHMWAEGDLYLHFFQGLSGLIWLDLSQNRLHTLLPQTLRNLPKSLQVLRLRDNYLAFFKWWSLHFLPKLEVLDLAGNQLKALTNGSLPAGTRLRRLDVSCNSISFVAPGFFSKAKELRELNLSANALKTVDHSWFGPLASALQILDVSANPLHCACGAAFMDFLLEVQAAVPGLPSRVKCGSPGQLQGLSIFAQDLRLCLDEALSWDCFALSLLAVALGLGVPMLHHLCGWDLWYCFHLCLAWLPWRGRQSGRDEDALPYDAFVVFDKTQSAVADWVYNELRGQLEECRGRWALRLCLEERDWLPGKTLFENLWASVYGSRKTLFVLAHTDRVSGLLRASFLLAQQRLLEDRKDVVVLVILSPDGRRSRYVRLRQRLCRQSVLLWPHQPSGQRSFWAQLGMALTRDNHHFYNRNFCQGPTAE
Put plainly: Antagonist activity at human TLR9 expressed in HEK293 cells co-transfected with MD2 and sAP assessed as inhibition of NF-kappaB activity by reporter gene assay.

For test [3], the target named is Toll-like receptor 4 (Homo sapiens) (UniProt O00206). Put plainly: Modulation of human TLR4 expressed in HEK293 cells co-transfected with MD2 and sAP assessed as induction of NF-kappaB activity by reporter gene assay.
In test [4] the target is Toll-like receptor 2 (Homo sapiens) (UniProt O60603). Put plainly: Modulation of human TLR2 expressed in HEK293 cells co-transfected with MD2 and sAP assessed as induction of NF-kappaB activity by reporter gene assay.

Each structure is given as a SMILES string. Calls of active or inactive are those of the source. The rule behind the calls is not given here.

Toll-like receptor 2 (Homo sapiens), sequence (O60603 whole entry): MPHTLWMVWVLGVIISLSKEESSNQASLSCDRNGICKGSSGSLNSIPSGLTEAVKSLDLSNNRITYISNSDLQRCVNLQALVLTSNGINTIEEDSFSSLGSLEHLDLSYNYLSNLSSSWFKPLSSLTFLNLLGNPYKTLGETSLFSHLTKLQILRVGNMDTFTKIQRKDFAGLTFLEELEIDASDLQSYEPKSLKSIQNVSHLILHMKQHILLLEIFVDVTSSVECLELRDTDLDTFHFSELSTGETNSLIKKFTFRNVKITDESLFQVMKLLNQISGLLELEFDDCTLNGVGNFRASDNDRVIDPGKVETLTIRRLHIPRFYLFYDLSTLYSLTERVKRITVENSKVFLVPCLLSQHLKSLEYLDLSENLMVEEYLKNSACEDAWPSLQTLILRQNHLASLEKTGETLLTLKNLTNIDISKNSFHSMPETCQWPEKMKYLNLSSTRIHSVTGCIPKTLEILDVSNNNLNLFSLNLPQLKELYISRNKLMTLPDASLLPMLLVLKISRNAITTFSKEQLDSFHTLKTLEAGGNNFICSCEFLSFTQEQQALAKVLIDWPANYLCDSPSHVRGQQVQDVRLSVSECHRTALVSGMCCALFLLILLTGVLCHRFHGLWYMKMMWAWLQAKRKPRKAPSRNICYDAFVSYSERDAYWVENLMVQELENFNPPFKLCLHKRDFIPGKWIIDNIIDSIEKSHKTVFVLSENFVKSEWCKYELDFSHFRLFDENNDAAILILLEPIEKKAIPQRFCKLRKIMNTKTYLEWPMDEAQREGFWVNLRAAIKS
Toll-like receptor 4 (Homo sapiens), sequence (O00206 whole entry): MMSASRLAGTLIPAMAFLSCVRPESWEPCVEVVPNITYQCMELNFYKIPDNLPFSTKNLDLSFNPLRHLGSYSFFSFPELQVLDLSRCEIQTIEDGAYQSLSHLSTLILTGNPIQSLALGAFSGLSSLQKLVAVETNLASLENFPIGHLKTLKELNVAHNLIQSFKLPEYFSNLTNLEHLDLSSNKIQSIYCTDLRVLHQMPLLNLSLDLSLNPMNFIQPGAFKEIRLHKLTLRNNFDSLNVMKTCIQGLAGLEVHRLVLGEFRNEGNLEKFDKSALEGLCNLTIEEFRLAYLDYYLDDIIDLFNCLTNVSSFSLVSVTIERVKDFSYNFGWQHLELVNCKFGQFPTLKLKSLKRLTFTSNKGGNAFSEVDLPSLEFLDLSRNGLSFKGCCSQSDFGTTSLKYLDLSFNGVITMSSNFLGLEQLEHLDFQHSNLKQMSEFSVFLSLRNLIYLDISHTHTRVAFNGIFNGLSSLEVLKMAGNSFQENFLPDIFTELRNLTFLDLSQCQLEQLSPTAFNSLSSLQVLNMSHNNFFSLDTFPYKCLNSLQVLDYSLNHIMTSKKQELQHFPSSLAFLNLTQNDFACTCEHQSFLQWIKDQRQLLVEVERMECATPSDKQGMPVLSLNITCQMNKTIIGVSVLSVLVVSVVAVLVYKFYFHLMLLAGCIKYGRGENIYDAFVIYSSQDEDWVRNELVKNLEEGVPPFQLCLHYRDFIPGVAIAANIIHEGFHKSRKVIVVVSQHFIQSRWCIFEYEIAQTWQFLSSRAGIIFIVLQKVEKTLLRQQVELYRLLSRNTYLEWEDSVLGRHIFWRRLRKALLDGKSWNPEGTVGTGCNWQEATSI

In the case of `Nc1nc2ccccc2c2oc(-c3ccccc3)cc12`, the inhibition entry in test [1] and in test [2] was “inactive” in each case.

Regarding `CCCCc1cc2c(N)nc3ccccc3c2o1`, the inhibition entry in test [1] and in test [2] was “inactive” in each case.

Consider `NCCc1cc2c(o1)c(N)nc1ccccc12`, for which the outcome in test [3] and in test [4] was Active.

`CCCCc1cc2c(nc(N)c3ccccc32)o1`: the result in test [3] and in test [4] was inactive. Besides, the inhibition result in test [1] and in test [2] was “inactive” in each case.

`CCCc1cc2c(N)nc3ccccc3c2o1`: the inhibition entry in test [1] and in test [2] was “inactive” throughout.
